{"source": "PubChem BioAssay AID1259409", "about": "(Chemical Carcinogenesis Research Information System (CCRIS), 2018)", "origin": "cited, not measured here", "system": "rodent chemically induced tumor inhibition, incidence and multiplicity", "experiment": "CCRIS tumor inhibitor studies", "details": "Route [Inhibitor]: ORAL, Species: RAT, Promoter: NONE USED"}
{"smiles": "O=[Se](O)O", "values": [{"measurement": "tumour outcome (control, treated, inhibition, significance)", "setting": "Carcinogen: 7,12-DIMETHYLBENZ[A]ANTHRACENE, 57-97-6, Dose [Inhibitor]: 5 PPM IN 25% CORN OIL DIET DAILY FOR 4 WK STARTING 2 WK BEFORE CARCINOGEN TREATMENT AND CONTINUING FOR 2 WK POST CARCINO, Strain/Sex: SPRAGUE-DAWLEY/FEMALE, Target Tissue: Type of Lesion: MAMMARY GLAND: ADENOCARCINOMA, Dose [Carcinogen]: 10 MG ONCE AT 50 D OF AGE", "result": "97%, 72%, 26%, p<0.02"}, {"measurement": "tumour outcome (control, treated, inhibition, significance)", "setting": "Carcinogen: 7,12-DIMETHYLBENZ[A]ANTHRACENE, 57-97-6, Dose [Inhibitor]: 5 PPM IN 25% CORN OIL DIET DAILY FOR 10 WK STARTING 2 WK AFTER CARCINOGEN TREATMENT (STUDY DURATION: 24 WK), Strain/Sex: SPRAGUE-DAWLEY/FEMALE, Target Tissue: Type of Lesion: MAMMARY GLAND: ADENOCARCINOMA, Dose [Carcinogen]: 10 MG ONCE AT 50 D OF AGE", "result": "97%, 86%, 11%, not significant"}, {"measurement": "tumour outcome (control, treated, inhibition, significance)", "setting": "Carcinogen: 7,12-DIMETHYLBENZ[A]ANTHRACENE, 57-97-6, Dose [Inhibitor]: 5 PPM IN 25% CORN OIL DIET DAILY FOR 12 WK STARTING 12 WK AFTER CARCINOGEN TREATMENT (STUDY DURATION: 24 WK), Strain/Sex: SPRAGUE-DAWLEY/FEMALE, Target Tissue: Type of Lesion: MAMMARY GLAND: ADENOCARCINOMA, Dose [Carcinogen]: 10 MG ONCE AT 50 D OF AGE", "result": "97%, 91%, 6%, not significant"}, {"measurement": "tumour outcome (control, treated, inhibition, significance)", "setting": "Carcinogen: 7,12-DIMETHYLBENZ[A]ANTHRACENE, 57-97-6, Dose [Inhibitor]: 5 PPM IN 25% CORN OIL DIET DAILY FOR 14 WK STARTING 2 WK BEFORE CARCINOGEN TREATMENT (STUDY DURATION: 26 WK), Strain/Sex: SPRAGUE-DAWLEY/FEMALE, Target Tissue: Type of Lesion: MAMMARY GLAND: ADENOCARCINOMA, Dose [Carcinogen]: 10 MG ONCE AT 50 D OF AGE", "result": "97%, 57%, 41%, p<0.02"}, {"measurement": "tumour outcome (control, treated, inhibition, significance)", "setting": "Carcinogen: 7,12-DIMETHYLBENZ[A]ANTHRACENE, 57-97-6, Dose [Inhibitor]: 5 PPM IN 25% CORN OIL DIET DAILY FOR 22 WK STARTING 2 WK AFTER CARCINOGEN TREATMENT AND CONTINUING FOR DURATION OF STUDY, Strain/Sex: SPRAGUE-DAWLEY/FEMALE, Target Tissue: Type of Lesion: MAMMARY GLAND: ADENOCARCINOMA, Dose [Carcinogen]: 10 MG ONCE AT 50 D OF AGE", "result": "97%, 69%, 26%, p<0.02"}, {"measurement": "tumour outcome (control, treated, inhibition, significance)", "setting": "Carcinogen: 7,12-DIMETHYLBENZ[A]ANTHRACENE, 57-97-6, Dose [Inhibitor]: 5 PPM IN 25% CORN OIL DIET DAILY FOR 26 WK STARTING 2 WK BEFORE CARCINOGEN TREATMENT AND CONTINUING FOR DURATION OF STUD, Strain/Sex: SPRAGUE-DAWLEY/FEMALE, Target Tissue: Type of Lesion: MAMMARY GLAND: ADENOCARCINOMA, Dose [Carcinogen]: 10 MG ONCE AT 50 D OF AGE", "result": "97%, 46%, 53%, p<0.02"}, {"measurement": "tumour outcome (control, treated, inhibition, significance)", "setting": "Carcinogen: AZOXYMETHANE, 25843-45-2, Dose [Inhibitor]: 0.5 PPM IN DIET BEGINNING 1 WK POST CARCINOGEN DOSE FOR DURATION OF STUDY (STUDY DURATION: 39 WK), Strain/Sex: F344/MALE, Target Tissue: Type of Lesion: COLON: ADENOCARCINOMA, Dose [Carcinogen]: 15 MG/KG BW 1/WK FOR 2 WK", "result": "10/27 (37%), 9/27 (33%), 11%, not significant"}, {"measurement": "tumour outcome (control, treated, inhibition, significance)", "setting": "Carcinogen: AZOXYMETHANE, 25843-45-2, Dose [Inhibitor]: 0.5 PPM IN DIET BEGINNING 1 WK POST CARCINOGEN DOSE FOR DURATION OF STUDY (STUDY DURATION: 39 WK), Strain/Sex: F344/MALE, Target Tissue: Type of Lesion: COLON: ADENOMA, Dose [Carcinogen]: 15 MG/KG BW 1/WK FOR 2 WK", "result": "16/27 (59%), 20/27 (74%), -25%, not significant"}, {"measurement": "tumour outcome (control, treated, inhibition, significance)", "setting": "Carcinogen: AZOXYMETHANE, 25843-45-2, Dose [Inhibitor]: 0.5 PPM IN DIET BEGINNING 1 WK POST CARCINOGEN DOSE FOR DURATION OF STUDY (STUDY DURATION: 39 WK), Strain/Sex: F344/MALE, Target Tissue: Type of Lesion: DUODENUM: ADENOCARCINOMA, Dose [Carcinogen]: 15 MG/KG BW 1/WK FOR 2 WK", "result": "7/27 (26%), 7/27 (26%), 0%, not significant"}, {"measurement": "tumour outcome (control, treated, inhibition, significance)", "setting": "Carcinogen: AZOXYMETHANE, 25843-45-2, Dose [Inhibitor]: 0.5 PPM IN DIET BEGINNING 1 WK POST CARCINOGEN DOSE FOR DURATION OF STUDY (STUDY DURATION: 39 WK), Strain/Sex: F344/MALE, Target Tissue: Type of Lesion: DUODENUM: ADENOMA, Dose [Carcinogen]: 15 MG/KG BW 1/WK FOR 2 WK", "result": "3/27 (11%), 4/27 (15%), -36%, not significant"}, {"measurement": "tumour outcome (control, treated, inhibition, significance)", "setting": "Carcinogen: AZOXYMETHANE, 25843-45-2, Dose [Inhibitor]: 0.5 PPM IN DIET BEGINNING 3 WK PRIOR TO CARCINOGEN DOSE AND CONTINUING FOR 1 WK POST CARCINOGEN DOSE (STUDY DURATION: 39, Strain/Sex: F344/MALE, Target Tissue: Type of Lesion: COLON: ADENOMA, Dose [Carcinogen]: 15 MG/KG BW 1/WK FOR 2 WK", "result": "16/27 (59%), 16/27 (59%), 0%, not significant"}, {"measurement": "tumour outcome (control, treated, inhibition, significance)", "setting": "Carcinogen: AZOXYMETHANE, 25843-45-2, Dose [Inhibitor]: 0.5 PPM IN DIET BEGINNING 3 WK PRIOR TO CARCINOGEN DOSE AND CONTINUING FOR 1 WK POST CARCINOGEN DOSE (STUDY DURATION: 39, Strain/Sex: F344/MALE, Target Tissue: Type of Lesion: DUODENUM: ADENOCARCINOMA, Dose [Carcinogen]: 15 MG/KG BW 1/WK FOR 2 WK", "result": "7/27 (26%), 7/27 (26%), 0%, not significant"}, {"measurement": "tumour outcome (control, treated, inhibition, significance)", "setting": "Carcinogen: AZOXYMETHANE, 25843-45-2, Dose [Inhibitor]: 0.5 PPM IN DIET BEGINNING 3 WK PRIOR TO CARCINOGEN DOSE AND CONTINUING FOR 1 WK POST CARCINOGEN DOSE (STUDY DURATION: 39, Strain/Sex: F344/MALE, Target Tissue: Type of Lesion: DUODENUM: ADENOMA, Dose [Carcinogen]: 15 MG/KG BW 1/WK FOR 2 WK", "result": "3/27 (11%), 2/27 (7%), 36%, not calculated"}, {"measurement": "tumour outcome (control, treated, inhibition, significance)", "setting": "Carcinogen: AZOXYMETHANE, 25843-45-2, Dose [Inhibitor]: 2.5 PPM IN DIET BEGINNING 1 WK POST CARCINOGEN DOSE FOR DURATION OF STUDY (STUDY DURATION: 39 WK), Strain/Sex: F344/MALE, Target Tissue: Type of Lesion: COLON: ADENOCARCINOMA, Dose [Carcinogen]: 15 MG/KG BW 1/WK FOR 2 WK", "result": "10/27 (37%), 1/27 (4%), 89%, p<0.05"}, {"measurement": "tumour outcome (control, treated, inhibition, significance)", "setting": "Carcinogen: AZOXYMETHANE, 25843-45-2, Dose [Inhibitor]: 2.5 PPM IN DIET BEGINNING 1 WK POST CARCINOGEN DOSE FOR DURATION OF STUDY (STUDY DURATION: 39 WK), Strain/Sex: F344/MALE, Target Tissue: Type of Lesion: COLON: ADENOMA, Dose [Carcinogen]: 15 MG/KG BW 1/WK FOR 2 WK", "result": "16/27 (59%), 12/27 (44%), 25%, not significant"}]}
